Experimental data published in patent publication US8168631B2, “3-(4-fluorophenyl)-3-hydroxy-2-amino-propionic acid amides and related compounds having analgesic activity” (Allergan, Inc., priority 2008, dated 2012).
Counter-ions that a name gives are not always drawn.

Test system: nerve-ligation induced pain (rat model of spinal nerve ligation, SNL)
Assay: Neuropathic pain model (Chung model): rat spinal nerve ligation, mechanical allodynia by Von Frey hairs
Type: in vivo
Conditions: for reversed pain in the Chung model: 1 mg/kg, time not given
Procedure: [drawing 23] and all racemic mixtures of the two optical isomers are also included. Analgesic Activity in the Neuropathic Pain Model (the Chung Model)
Several of the compounds disclosed herein were tested in the rat model of spinal nerve ligation (SNL) which involves a traumatic partial nerve injury, involving tight ligation of the L5 and L6 spinal nerves (Kim and Chung, 1992). Pain, including mechanical allodynia and thermal hyperalgesia, persists in the absence of ongoing tissue injury for more than 2 months following the surgery. The ability of the drug to alleviate the mechanical allodynia was assessed using a series of Von Frey hairs applied to the mid-plantar area of the ipsilateral hind paw before and after drug administration. The paw withdrawal threshold was determined using a standard up-down testing method (Dixon, 1980) and expressed relative to the paw withdrawal threshold in uninjured rats.
• Kim S H, Chung J M. An experimental model for peripheral neuropathy produced by segmental spinal nerve ligation in the rat, Pain 1992; 50 (3): 355-63. • Dixon W J. Efficient analysis of experimental observations. Annu Rev Pharmacol Toxicol 1980; 20: 441-62.

N[C@@H](C(=O)N1CCCC1)[C@@H](O)c1ccc(F)cc1 (racemic) [Compound 1, (±)-threo-2-Amino-3-(4-fluorophenyl)-3-hydroxy-1-(pyrrolidin-1-yl)propan-1-one hydrochloride]
reversed pain in the Chung model: 64%
Percent pain reversal at time in min (dose 0.3 mg/kg, 15 min): 17%
Percent pain reversal at time in min (dose 0.3 mg/kg, 30 min): 29%
Percent pain reversal at time in min (dose 0.3 mg/kg, 60 min): 52%
Percent pain reversal at time in min (dose 1 mg/kg, 15 min): 28%
Percent pain reversal at time in min (dose 1 mg/kg, 30 min): 52%
Percent pain reversal at time in min (dose 1 mg/kg, 60 min): 64%

N[C@@H](C(=O)N1CCCC1)[C@@H](O)c1ccc(I)cc1 (racemic) [reference compound]
Percent pain reversal at time in min (dose 0.3 mg/kg, 15 min): 4.3%
Percent pain reversal at time in min (dose 0.3 mg/kg, 30 min): 5.8%
Percent pain reversal at time in min (dose 0.3 mg/kg, 60 min): 7.3%

N[C@@H](C(=O)N1CCCC1)[C@@H](O)c1ccc(Cl)cc1 (racemic) [reference compound]
Percent pain reversal at time in min (dose 0.3 mg/kg, 15 min): 4.8%
Percent pain reversal at time in min (dose 0.3 mg/kg, 30 min): 7.5%
Percent pain reversal at time in min (dose 0.3 mg/kg, 60 min): 8.6%

N[C@@H](C(=O)N1CCCC1)[C@@H](O)c1ccc(F)cc1 [Compound 3, (−)-threo-2-Amino-3-(4-fluorophenyl)-3-hydroxy-1-(pyrrolidin-1-yl)propan-1-one hydrochloride]
reversed pain in the Chung model: 86%
Percent pain reversal at time in min (dose 0.1 mg/kg, 15 min): 1.2%
Percent pain reversal at time in min (dose 0.1 mg/kg, 30 min): 20.2%
Percent pain reversal at time in min (dose 0.1 mg/kg, 60 min): 43.2%
Percent pain reversal at time in min (dose 0.3 mg/kg, 15 min): 26.7%
Percent pain reversal at time in min (dose 0.3 mg/kg, 30 min): 53.6%
Percent pain reversal at time in min (dose 0.3 mg/kg, 60 min): 75.5%
Percent pain reversal at time in min (dose 1 mg/kg, 15 min): 57.2%
Percent pain reversal at time in min (dose 1 mg/kg, 30 min): 73.5%
Percent pain reversal at time in min (dose 1 mg/kg, 60 min): 86.2%
